Measurements taken from ChEMBL document CHEMBL3638619, “Oxazole and thiazole compounds as KSP inhibitors” (2014).

Target: T1, Kinesin-like protein KIF11 (Homo sapiens, UniProt P52732)
T1 sequence (P52732 whole entry): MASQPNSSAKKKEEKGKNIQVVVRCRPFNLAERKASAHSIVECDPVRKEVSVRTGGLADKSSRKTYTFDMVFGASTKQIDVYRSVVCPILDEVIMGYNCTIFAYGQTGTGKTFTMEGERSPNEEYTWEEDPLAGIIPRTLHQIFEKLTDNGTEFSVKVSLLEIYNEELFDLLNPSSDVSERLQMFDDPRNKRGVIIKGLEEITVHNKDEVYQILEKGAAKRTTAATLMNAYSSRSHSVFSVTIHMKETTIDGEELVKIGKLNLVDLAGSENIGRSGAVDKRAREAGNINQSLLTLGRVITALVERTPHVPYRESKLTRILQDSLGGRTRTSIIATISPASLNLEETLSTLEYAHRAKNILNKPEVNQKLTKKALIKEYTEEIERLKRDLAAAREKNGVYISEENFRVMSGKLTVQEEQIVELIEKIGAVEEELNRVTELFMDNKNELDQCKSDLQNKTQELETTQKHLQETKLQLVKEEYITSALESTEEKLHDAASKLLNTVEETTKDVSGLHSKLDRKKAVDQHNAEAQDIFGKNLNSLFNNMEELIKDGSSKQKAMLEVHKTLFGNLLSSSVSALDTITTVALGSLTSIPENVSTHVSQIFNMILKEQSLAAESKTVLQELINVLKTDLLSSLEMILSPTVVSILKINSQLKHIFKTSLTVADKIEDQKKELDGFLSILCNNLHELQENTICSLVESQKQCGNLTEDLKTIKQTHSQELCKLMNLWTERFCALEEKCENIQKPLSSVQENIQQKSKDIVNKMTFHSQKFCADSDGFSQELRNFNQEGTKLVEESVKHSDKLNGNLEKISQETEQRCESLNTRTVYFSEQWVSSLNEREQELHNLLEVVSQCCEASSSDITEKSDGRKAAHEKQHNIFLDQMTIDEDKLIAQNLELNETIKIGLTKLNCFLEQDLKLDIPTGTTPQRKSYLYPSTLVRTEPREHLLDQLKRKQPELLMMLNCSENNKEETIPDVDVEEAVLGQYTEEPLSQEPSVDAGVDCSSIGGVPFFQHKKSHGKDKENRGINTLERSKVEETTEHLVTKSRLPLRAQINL
Test: In Vitro Assay: This example provides a representative in vitro assay for determining KSP activity in vitro. Purified microtubules obtained from bovine brain were purchased from Cytoskeleton Inc. (Denver, Colo., USA). The motor domain of human KSP (Eg 5, KNSL1) was cloned, expressed, and purified to greater than 95% homogeneity. Biomol Green was purchased from Affinity Research Products Ltd. (Matford Court, Exeter, Devon, United Kingdom). Microtubules and KSP motor protein (i.e., the KSP motor domain) were diluted in assay buffer (20 mM Tris-HCl (pH 7.5), 1 mM MgCl2, 10 mM DTT and 0.25 mg/mL BSA) to a final concentration of 35 μg/mL microtubules and 45 nM KSP. The microtubule/KSP mixture was then pre-incubated at 37 C. for 10 min to promote the binding of KSP to microtubules.

For `C[C@H](O)C(=O)N(CC[C@H](N)CF)[C@H](c1nc(-c2cc(F)ccc2F)sc1Cc1ccccc1)C(C)(C)C`, the IC50 was 216 nM.
